Like-named read-outs stand apart in the source and are kept apart here.
Key:
[1] = tested on: Plasmodium falciparum 3D7; experiment: Plasmodium falciparum susceptibility assay, first round (SYBR Green I); type: cell-based; settings: 3D7, first round, 48-h incubation, strain susceptible to CQ, decreased susceptibility to MQ, read-out: IC50 (nM) Plasmodium falciparum 3D7 (converted)
Plasmodium falciparum W2 = experiment: as above; type: cell-based; settings: W2, first round, 48-h incubation, strain resistant to CQ, sensitive to MQ, read-out: IC50 (nM) Plasmodium falciparum W2 (converted)
CHO-K1 cells [2] = experiment: In vitro micronucleus assay, short-term exposure
Description: All the assays were conducted in duplicate. The CHO-K1 cells, suspended in McCoy's 5A medium, were transferred into Labteck wells at a concentration of 100,000 cells/mL, and incubated for 24 hours at 37° C. in CO2 (5%).
When the test was performed without metabolic activation, the test substances were added into cell cultures at concentrations previously defined.
When the assay was performed in the presence of metabolic activation, S9 mix metabolizing mixture was added to cell cultures at a concentration of 10%. Then the test substances were added to the cell cultures at concentrations previously defined.
After 3 hours of incubation at 37° C. in CO2 (5%), the culture medium was removed, the cells were rinsed with phosphate buffered saline (PBS), and then returned to culture in McCoy's 5A medium containing […] of cytochalasin B. After a 21-hour incubation period at 37° C., cells were rinsed with phosphate buffered saline (PBS), fixed with methanol and stained with 10% Giemsa for 20 minutes.
(§1) The analysis of results was performed under a microscope at ×1000 magnification. The antiproliferative activity of test substances was estimated by counting the number of binucleated cells relative to the number of mononucleated cells on a total of 500 cells for each dose (250 cells counted per well). The proliferation index (Cytokinesis Blocked Proliferative Index CBPI) was calculated using the following formula:
(§2) The cytostasis index (CI %), i.e. the percentage of cell replication inhibition, was calculated using the following formula: CI %−100−{100×(CBPItest material−1)/(CBPIsolvent control−1)}
(§3) The rates of micronuclei were evaluated for the presence of independent nuclear core entities in 1000 binucleated cells per well, which corresponds to 2000 cells examined by test substance dose. Micronuclei were identified as small nuclei well differentiated from cell nucleus, stained in the same manner and having a diameter less than one third of that of the cell nucleus.
(§4) Micronuclei rates obtained for different doses of test substances were compared to the negative control by a χ2 test. The assay was considered positive if: • A dose-response relationship was obtained between the rate of micronuclei and the doses tested, • At least one of these doses induced a statistically significant increase (P<0.05) in the number of micronucleated cells as compared to the negative control.

CHO-K1 cells [3] = settings: Chinese hamster, 24 h
Description: All the assays were conducted in duplicate. The CHO-K1 cells, suspended in Mac Coy's 5A medium, were transferred into Labteck wells at a concentration of 100,000 cells/mL, and incubated for 24 hours at 37° C. in CO2 (5%).
The test was performed without metabolic activation: the test substances were added into cell cultures at concentrations previously defined. […] After 24 hours of incubation at 37° C. in CO2 (5%), the culture medium was removed, the cells were rinsed with phosphate buffered saline (PBS), and then returned in culture medium containing […] of cytochalasine B. After a 24-hour incubation period at 37° C., cells were rinsed with phosphate buffered saline (PBS), fixed with methanol and stained with 10% Giemsa for 20 minutes.
as §1, §2, §3, §4

Salmonella strains = experiment: Bacterial reverse mutation assay (Ames test), overall conclusion; type: cell-based, S. typhimurium; settings: all tested doses, absence or presence of the metabolizing mixture
Description: Five strains of S. typhimurium were used. […] An additional strain has been chosen to detect cross-linking mutagens, hydrazines and oxidative agents: TA102, which have an AT base pair at the primary reversion site. Salmonella tester strains were gifts from Prof. B. N. Ames (Berkeley, Calif., USA). They were stored at −80° C. and regularly checked for genetic markers.
Few crystals of the frozen working strains were taken with a sterile pipette, and seeded in 10 mL of nutrient broth (NB No 2, Oxoid). Strains were grown overnight at 37° C. with shaking in Nutrient Broth No. 2, with ampicillin (25 μg/mL) for TA1535, TA97a, TA98, and TA 100, or ampicillin (25 μg/mL) plus tetracyclin (2 μg/mL) for TA 102. At the end of the incubation period, 0.1 mL of each overnight culture was mixed to 0.1 mL S9 Mix or 0.1 mL phosphate-buffered saline (PBS, pH 7.4) in 5 mL plastic tubes and various volumes of the tested samples were added to the mixtures. Each experiment included triplicate plates of four tested doses. A solvent (DMSO, 10 μL) control was added to determine the spontaneous frequency of revertants (quadruple plates). Five positive controls were also included to ensure the performance of the tester strains and the S9 Mix. […] After hardening, the plates were incubated at 37° C. for 48 hours.
At the end of the incubation period, revertants were counted with a laser colony counter equipped with a bacterial enumeration program (Spiral System Instrument Inc., Bethesda, Md., USA).
The Dunnett test was performed to determine a significant difference between the mean number of induced revertants and the mean number of spontaneous revertants.

S. typhimurium TA98 = experiment: Bacterial reverse mutation assay (Ames test)

SMILES: COC[C@H](Cc1ccccc1)NC[C@@H](O)c1cc(-c2ccc(C(F)(F)F)cc2)nc(C(F)(F)F)c1 [Compound 1i, (S)-2-(((S)-1-Methoxy-3-phenylpropan-2-yl)amino)-1-(2-(trifluoromethyl)-6-(4-(trifluoromethyl)phenyl)pyridin-4-yl)ethanol]
- IC50 [1]: 28.3 ± 1.5 nM
- IC50 (Plasmodium falciparum W2): 28.8 ± 3.8 nM
- in vitro micronucleus assay result (clastogenic and/or aneugenic activities) (CHO-K1 cells [2]): negative results
- BI (binucleated cells) (CHO-K1 cells [3]; 5 μM): 402
- CBPI (Cytokinesis-Blocked Proliferative Index) (CHO-K1 cells [3]; 5 μM): 1.81
- CI % (cytostasis index) (CHO-K1 cells [3]; 5 μM): 13%
- MNC1 (micronucleated cell rate) (CHO-K1 cells [3]; 5 μM): 9 ‰
- MNC2 (micronucleated cell rate) (CHO-K1 cells [3]; 5 μM): 11 ‰
- MNC-M (mean of micronucleated cell rates) (CHO-K1 cells [3]; 5 μM): 10 ± 1.4 ‰
- MONO (mononucleated cells) (CHO-K1 cells [3]; 5 μM): 98
- BI (binucleated cells) (CHO-K1 cells [3]; 10 μM): 308
- CBPI (Cytokinesis-Blocked Proliferative Index) (CHO-K1 cells [3]; 10 μM): 1.62
- CI % (cytostasis index) (CHO-K1 cells [3]; 10 μM): 34%
- MNC1 (micronucleated cell rate) (CHO-K1 cells [3]; 10 μM): 10 ‰
- MNC2 (micronucleated cell rate) (CHO-K1 cells [3]; 10 μM): 12 ‰
- MNC-M (mean of micronucleated cell rates) (CHO-K1 cells [3]; 10 μM): 11 ± 1.4 ‰
- MONO (mononucleated cells) (CHO-K1 cells [3]; 10 μM): 192
- BI (binucleated cells) (CHO-K1 cells [3]; 50 μM): 214
- CBPI (Cytokinesis-Blocked Proliferative Index) (CHO-K1 cells [3]; 50 μM): 1.42
- CI % (cytostasis index) (CHO-K1 cells [3]; 50 μM): 57%
- MNC1 (micronucleated cell rate) (CHO-K1 cells [3]; 50 μM): 11 ‰
- MNC2 (micronucleated cell rate) (CHO-K1 cells [3]; 50 μM): 9 ‰
- MNC-M (mean of micronucleated cell rates) (CHO-K1 cells [3]; 50 μM): 10 ± 1.4 ‰
- MONO (mononucleated cells) (CHO-K1 cells [3]; 50 μM): 286
- mutagenic activity in Salmonella strains (revertant rates) (Salmonella strains): No significant increase in revertant rates
- Number of revertants by plate (Means ± SD), TA1535 (S. typhimurium TA1535; with S9 mix, 0.4 μg/plate): 23 ± 6^NS
- Number of revertants by plate (Means ± SD), TA1535 (S. typhimurium TA1535; with S9 mix, 0.6 μg/plate): 29 ± 4^NS
- Number of revertants by plate (Means ± SD), TA1535 (S. typhimurium TA1535; with S9 mix, 0.8 μg/plate): 27 ± 5^NS
- Number of revertants by plate (Means ± SD), TA1535 (S. typhimurium TA1535; with S9 mix, 1 μg/plate): 29 ± 9^NS
- Number of revertants by plate (Means ± SD), TA1535 (S. typhimurium TA1535; without S9 mix, 0.4 μg/plate): 22 ± 4^NS
- Number of revertants by plate (Means ± SD), TA1535 (S. typhimurium TA1535; without S9 mix, 0.6 μg/plate): 29 ± 6^NS
- Number of revertants by plate (Means ± SD), TA1535 (S. typhimurium TA1535; without S9 mix, 0.8 μg/plate): 28 ± 5^NS
- Number of revertants by plate (Means ± SD), TA1535 (S. typhimurium TA1535; without S9 mix, 1 μg/plate): 20 ± 4^NS
- Number of revertants by plate (Means ± SD), TA97a (S. typhimurium TA97a; with S9 mix, 0.4 μg/plate): 132 ± 11^NS
- Number of revertants by plate (Means ± SD), TA97a (S. typhimurium TA97a; with S9 mix, 0.6 μg/plate): 137 ± 2^NS
- Number of revertants by plate (Means ± SD), TA97a (S. typhimurium TA97a; with S9 mix, 0.8 μg/plate): 127 ± 9^NS
- Number of revertants by plate (Means ± SD), TA97a (S. typhimurium TA97a; with S9 mix, 1 μg/plate): 124 ± 4^NS
- Number of revertants by plate (Means ± SD), TA97a (S. typhimurium TA97a; without S9 mix, 0.4 μg/plate): 153 ± 5^NS
- Number of revertants by plate (Means ± SD), TA97a (S. typhimurium TA97a; without S9 mix, 0.6 μg/plate): 163 ± 4^NS
- Number of revertants by plate (Means ± SD), TA97a (S. typhimurium TA97a; without S9 mix, 0.8 μg/plate): 164 ± 5^NS
- Number of revertants by plate (Means ± SD), TA97a (S. typhimurium TA97a; without S9 mix, 1 μg/plate): 144 ± 11^NS
- Number of revertants by plate (Means ± SD), TA100 (S. typhimurium TA100; with S9 mix, 0.4 μg/plate): 191 ± 11^NS
- Number of revertants by plate (Means ± SD), TA100 (S. typhimurium TA100; with S9 mix, 0.6 μg/plate): 173 ± 10^NS
- Number of revertants by plate (Means ± SD), TA100 (S. typhimurium TA100; with S9 mix, 0.8 μg/plate): 182 ± 10^NS
- Number of revertants by plate (Means ± SD), TA100 (S. typhimurium TA100; with S9 mix, 1 μg/plate): 174 ± 10^NS
- Number of revertants by plate (Means ± SD), TA100 (S. typhimurium TA100; without S9 mix, 0.4 μg/plate): 200 ± 7^NS
- Number of revertants by plate (Means ± SD), TA100 (S. typhimurium TA100; without S9 mix, 0.6 μg/plate): 199 ± 10^NS
- Number of revertants by plate (Means ± SD), TA100 (S. typhimurium TA100; without S9 mix, 0.8 μg/plate): 209 ± 17^NS
- Number of revertants by plate (Means ± SD), TA100 (S. typhimurium TA100; without S9 mix, 1 μg/plate): 205 ± 21^NS
- Number of revertants by plate (Means ± SD), TA102 (S. typhimurium TA102; with S9 mix, 0.4 μg/plate): 351 ± 6^NS
- Number of revertants by plate (Means ± SD), TA102 (S. typhimurium TA102; with S9 mix, 0.6 μg/plate): 355 ± 16^NS
- Number of revertants by plate (Means ± SD), TA102 (S. typhimurium TA102; with S9 mix, 0.8 μg/plate): 376 ± 10^NS
- Number of revertants by plate (Means ± SD), TA102 (S. typhimurium TA102; with S9 mix, 1 μg/plate): 362 ± 4^NS
- Number of revertants by plate (Means ± SD), TA102 (S. typhimurium TA102; without S9 mix, 0.4 μg/plate): 332 ± 19^NS
- Number of revertants by plate (Means ± SD), TA102 (S. typhimurium TA102; without S9 mix, 0.6 μg/plate): 293 ± 4^NS
- Number of revertants by plate (Means ± SD), TA102 (S. typhimurium TA102; without S9 mix, 0.8 μg/plate): 328 ± 14^NS
- Number of revertants by plate (Means ± SD), TA102 (S. typhimurium TA102; without S9 mix, 1 μg/plate): 347 ± 11^NS
- Number of revertants by plate (Means ± SD), TA98 (S. typhimurium TA98; with S9 mix, 0.4 μg/plate): 24 ± 2^NS
- Number of revertants by plate (Means ± SD), TA98 (S. typhimurium TA98; with S9 mix, 0.6 μg/plate): 18 ± 3^NS
- Number of revertants by plate (Means ± SD), TA98 (S. typhimurium TA98; with S9 mix, 0.8 μg/plate): 17 ± 1^NS
- Number of revertants by plate (Means ± SD), TA98 (S. typhimurium TA98; with S9 mix, 1 μg/plate): 20 ± 2^NS
- Number of revertants by plate (Means ± SD), TA98 (S. typhimurium TA98; without S9 mix, 0.4 μg/plate): 32 ± 3^NS
- Number of revertants by plate (Means ± SD), TA98 (S. typhimurium TA98; without S9 mix, 0.6 μg/plate): 33 ± 3^NS
- Number of revertants by plate (Means ± SD), TA98 (S. typhimurium TA98; without S9 mix, 0.8 μg/plate): 33 ± 3^NS
- Number of revertants by plate (Means ± SD), TA98 (S. typhimurium TA98; without S9 mix, 1 μg/plate): 34 ± 7^NS

Reference: patent publication US11220482B2, “Aminopyridinemethanol compounds and their use” (UNIVERSITE AMIENS PICARDIE JULES VERNE, priority 2017, dated 2022)
